Source: the kinase profiling compilation of Christmann-Franck et al. (2016)

Columns and labels:
Assay in all cases: KINOMEscan competition binding
Conditions in all cases: compound 1.0 µM
[1] = target: BRSK2 (human) (UniProt Q8IWQ3)
[2] = target: AURKC (human) (UniProt Q9UQB9)
[3] = target: STK33 (human) (UniProt Q9BYT3)
[4] = target: ACVR2B (human) (UniProt Q13705)
[5] = target: STK17B (human) (UniProt O94768)
[6] = system: RET (human), P07949 [M918T]
[7] = target: PRPF4B (human) (UniProt Q13523)
[8] = target: CDC42BPB (human) (UniProt Q9Y5S2)
[9] = target: RPS6KA5 KD2 (human) (UniProt O75582)
Chain of RPS6KA5 KD2 (human) (O75582 whole entry, looked up): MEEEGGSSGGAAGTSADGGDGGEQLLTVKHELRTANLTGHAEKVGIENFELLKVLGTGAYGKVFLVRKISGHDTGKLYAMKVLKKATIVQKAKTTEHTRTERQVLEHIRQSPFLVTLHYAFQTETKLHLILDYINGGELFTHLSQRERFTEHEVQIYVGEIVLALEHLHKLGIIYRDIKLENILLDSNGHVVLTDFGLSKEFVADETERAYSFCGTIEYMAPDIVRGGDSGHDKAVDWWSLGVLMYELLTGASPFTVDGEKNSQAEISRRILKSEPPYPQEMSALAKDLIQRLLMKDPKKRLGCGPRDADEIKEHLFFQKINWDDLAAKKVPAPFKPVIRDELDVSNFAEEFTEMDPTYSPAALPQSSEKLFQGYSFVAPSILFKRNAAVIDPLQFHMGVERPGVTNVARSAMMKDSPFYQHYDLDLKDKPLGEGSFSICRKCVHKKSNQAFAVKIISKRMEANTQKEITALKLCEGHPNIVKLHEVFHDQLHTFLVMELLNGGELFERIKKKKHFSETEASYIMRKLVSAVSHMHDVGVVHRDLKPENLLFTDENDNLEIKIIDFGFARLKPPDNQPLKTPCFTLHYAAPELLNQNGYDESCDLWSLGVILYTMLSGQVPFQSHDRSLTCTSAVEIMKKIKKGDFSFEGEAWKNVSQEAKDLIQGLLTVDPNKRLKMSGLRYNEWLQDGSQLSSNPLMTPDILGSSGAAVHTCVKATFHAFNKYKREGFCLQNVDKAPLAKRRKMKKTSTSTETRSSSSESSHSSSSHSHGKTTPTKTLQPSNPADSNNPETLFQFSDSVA

[10] = target: JAK1 JH2 pseudokinase (human) (UniProt P23458)
[11] = target: MAPK9 (human) (UniProt P45984)
Chain of MAPK9 (human) (P45984 whole entry, looked up): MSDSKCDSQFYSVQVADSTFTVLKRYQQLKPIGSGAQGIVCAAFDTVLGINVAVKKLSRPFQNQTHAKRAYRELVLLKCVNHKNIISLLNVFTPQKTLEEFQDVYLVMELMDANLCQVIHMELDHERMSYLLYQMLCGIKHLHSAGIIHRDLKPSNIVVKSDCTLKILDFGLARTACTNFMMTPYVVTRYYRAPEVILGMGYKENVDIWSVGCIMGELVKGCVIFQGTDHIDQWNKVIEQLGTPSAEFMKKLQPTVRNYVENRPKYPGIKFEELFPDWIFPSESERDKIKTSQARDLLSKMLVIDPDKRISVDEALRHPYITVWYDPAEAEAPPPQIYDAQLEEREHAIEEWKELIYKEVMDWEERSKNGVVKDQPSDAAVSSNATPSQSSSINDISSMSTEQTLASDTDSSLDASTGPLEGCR

[12] = target: RIPK1 (human) (UniProt Q13546)
Chain of RIPK1 (human) (Q13546 whole entry, looked up): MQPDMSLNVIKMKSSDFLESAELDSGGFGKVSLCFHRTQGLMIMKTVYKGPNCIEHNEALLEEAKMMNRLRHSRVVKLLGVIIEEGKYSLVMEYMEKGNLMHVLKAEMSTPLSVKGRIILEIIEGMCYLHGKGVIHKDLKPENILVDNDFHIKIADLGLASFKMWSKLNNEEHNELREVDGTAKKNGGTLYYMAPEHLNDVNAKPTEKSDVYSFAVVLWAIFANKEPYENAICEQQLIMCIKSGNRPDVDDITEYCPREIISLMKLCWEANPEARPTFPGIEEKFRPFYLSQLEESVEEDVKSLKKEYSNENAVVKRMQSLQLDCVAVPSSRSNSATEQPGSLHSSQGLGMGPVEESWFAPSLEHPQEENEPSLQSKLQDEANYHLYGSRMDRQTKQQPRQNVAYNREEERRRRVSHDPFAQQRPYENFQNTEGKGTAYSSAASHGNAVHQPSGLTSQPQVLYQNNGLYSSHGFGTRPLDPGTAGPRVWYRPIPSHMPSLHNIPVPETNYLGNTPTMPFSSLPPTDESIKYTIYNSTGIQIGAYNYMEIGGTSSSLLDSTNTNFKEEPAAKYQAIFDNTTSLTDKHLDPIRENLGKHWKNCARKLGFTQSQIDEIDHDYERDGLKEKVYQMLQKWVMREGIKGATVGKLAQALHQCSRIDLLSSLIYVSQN

[13] = target: MAP3K4 (human) (UniProt Q9Y6R4)
[14] = system: FLT3 (human), P36888 [D835Y]
[15] = target: MAP3K9 (human) (UniProt P80192)
[16] = target: CSNK2A2 (human) (UniProt P19784)
[17] = target: GAK (human) (UniProt O14976)
[18] = target: ERBB2 (human) (UniProt P04626)
[19] = target: TLK1 (human) (UniProt Q9UKI8)
[20] = target: ACVR2A (human) (UniProt P27037)
[21] = target: MAP3K15 (human) (UniProt Q6ZN16)
[22] = target: ERN1 (human) (UniProt O75460)
[23] = target: MAPK7 (human) (UniProt Q13164)
[24] = target: CLK1 (human) (UniProt P49759)
[25] = target: PRKAA1 (human) (UniProt Q13131)
[26] = target: PTK2 (human) (UniProt Q05397)
[27] = target: STK17A (human) (UniProt Q9UEE5)
Chain of STK17A (human) (Q9UEE5 whole entry, looked up): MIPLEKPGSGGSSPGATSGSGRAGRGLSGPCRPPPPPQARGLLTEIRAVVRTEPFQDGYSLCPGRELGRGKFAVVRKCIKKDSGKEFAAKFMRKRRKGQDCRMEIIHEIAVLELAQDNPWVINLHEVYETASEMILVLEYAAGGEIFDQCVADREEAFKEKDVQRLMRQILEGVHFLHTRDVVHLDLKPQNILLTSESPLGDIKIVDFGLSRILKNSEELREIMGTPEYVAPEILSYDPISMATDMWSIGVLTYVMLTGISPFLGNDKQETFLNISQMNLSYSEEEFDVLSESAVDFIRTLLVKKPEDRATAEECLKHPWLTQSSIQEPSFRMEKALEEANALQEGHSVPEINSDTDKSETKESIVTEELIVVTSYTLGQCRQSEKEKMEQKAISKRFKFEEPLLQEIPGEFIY

[28] = target: EPHA5 (human) (UniProt P54756)
[29] = target: RIPK4 (human) (UniProt P57078)
Chain of RIPK4 (human) (P57078 whole entry, looked up): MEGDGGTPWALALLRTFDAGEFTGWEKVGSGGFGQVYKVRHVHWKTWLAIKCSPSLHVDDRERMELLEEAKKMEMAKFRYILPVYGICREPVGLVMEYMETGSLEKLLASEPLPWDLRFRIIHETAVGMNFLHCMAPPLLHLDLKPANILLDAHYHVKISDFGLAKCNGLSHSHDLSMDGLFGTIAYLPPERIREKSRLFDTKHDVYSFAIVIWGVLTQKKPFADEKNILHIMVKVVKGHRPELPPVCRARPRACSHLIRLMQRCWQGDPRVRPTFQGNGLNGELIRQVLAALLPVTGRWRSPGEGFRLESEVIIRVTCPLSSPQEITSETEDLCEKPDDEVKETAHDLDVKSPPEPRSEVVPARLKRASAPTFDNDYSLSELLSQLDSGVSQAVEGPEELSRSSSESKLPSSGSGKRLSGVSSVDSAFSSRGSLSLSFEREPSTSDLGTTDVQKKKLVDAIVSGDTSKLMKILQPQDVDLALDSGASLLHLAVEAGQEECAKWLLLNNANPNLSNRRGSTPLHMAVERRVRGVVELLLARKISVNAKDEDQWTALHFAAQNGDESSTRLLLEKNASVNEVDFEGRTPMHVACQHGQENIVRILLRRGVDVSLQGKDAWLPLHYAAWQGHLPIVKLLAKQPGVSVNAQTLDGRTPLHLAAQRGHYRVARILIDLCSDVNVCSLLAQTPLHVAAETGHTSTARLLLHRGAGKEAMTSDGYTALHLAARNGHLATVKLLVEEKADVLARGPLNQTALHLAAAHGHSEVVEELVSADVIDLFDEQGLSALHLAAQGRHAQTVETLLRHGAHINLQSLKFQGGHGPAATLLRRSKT

[30] = system: EGFR (human), P00533 [752-759 del]
[31] = target: SLK (human) (UniProt Q9H2G2)
[32] = target: CHEK2 (human) (UniProt O96017)
Chain of CHEK2 (human) (O96017 whole entry, looked up): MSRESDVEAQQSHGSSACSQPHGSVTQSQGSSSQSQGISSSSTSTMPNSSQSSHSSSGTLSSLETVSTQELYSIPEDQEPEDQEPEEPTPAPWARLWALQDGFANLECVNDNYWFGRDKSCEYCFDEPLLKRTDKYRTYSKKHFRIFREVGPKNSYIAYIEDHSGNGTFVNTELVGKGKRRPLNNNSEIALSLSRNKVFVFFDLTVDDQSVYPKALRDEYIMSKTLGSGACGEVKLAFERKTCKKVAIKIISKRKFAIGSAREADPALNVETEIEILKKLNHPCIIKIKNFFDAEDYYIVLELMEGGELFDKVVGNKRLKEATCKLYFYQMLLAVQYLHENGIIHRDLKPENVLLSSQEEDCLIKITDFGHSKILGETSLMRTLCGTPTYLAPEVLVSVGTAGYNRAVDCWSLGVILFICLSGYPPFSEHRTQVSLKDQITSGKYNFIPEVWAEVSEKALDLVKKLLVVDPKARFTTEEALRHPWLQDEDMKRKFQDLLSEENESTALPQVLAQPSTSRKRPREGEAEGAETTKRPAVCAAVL

[33] = target: ERBB4 (human) (UniProt Q15303)
[34] = target: NTRK2 (human) (UniProt Q16620)
[35] = target: CDK5 (human) (UniProt Q00535)
[36] = target: MAPK15 (human) (UniProt Q8TD08)
Chain of MAPK15 (human) (Q8TD08 whole entry, looked up): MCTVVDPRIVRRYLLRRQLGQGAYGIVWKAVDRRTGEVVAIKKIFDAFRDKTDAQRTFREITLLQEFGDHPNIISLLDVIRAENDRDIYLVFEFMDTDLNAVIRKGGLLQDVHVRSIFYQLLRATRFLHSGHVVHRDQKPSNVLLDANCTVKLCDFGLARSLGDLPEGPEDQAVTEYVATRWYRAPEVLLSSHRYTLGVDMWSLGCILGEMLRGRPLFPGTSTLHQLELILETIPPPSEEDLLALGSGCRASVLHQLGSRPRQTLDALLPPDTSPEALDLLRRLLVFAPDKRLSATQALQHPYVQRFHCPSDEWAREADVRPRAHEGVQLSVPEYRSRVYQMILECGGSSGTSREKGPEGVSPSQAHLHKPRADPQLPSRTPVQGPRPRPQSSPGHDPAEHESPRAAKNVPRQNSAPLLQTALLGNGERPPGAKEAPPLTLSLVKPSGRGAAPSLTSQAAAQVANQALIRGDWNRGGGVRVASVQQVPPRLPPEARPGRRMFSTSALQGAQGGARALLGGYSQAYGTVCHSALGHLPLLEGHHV

[37] = target: BLK (human) (UniProt P51451)
[38] = system: FLT3 (human), P36888 [ITD]
[39] = target: SGK3 (human) (UniProt Q96BR1)
[40] = target: MAK (human) (UniProt P20794)
[41] = target: PRKCI (human) (UniProt P41743)
[42] = target: CAMK2B (human) (UniProt Q13554)
[43] = target: TSSK1B (human) (UniProt Q9BXA7)
Chain of TSSK1B (human) (Q9BXA7 whole entry, looked up): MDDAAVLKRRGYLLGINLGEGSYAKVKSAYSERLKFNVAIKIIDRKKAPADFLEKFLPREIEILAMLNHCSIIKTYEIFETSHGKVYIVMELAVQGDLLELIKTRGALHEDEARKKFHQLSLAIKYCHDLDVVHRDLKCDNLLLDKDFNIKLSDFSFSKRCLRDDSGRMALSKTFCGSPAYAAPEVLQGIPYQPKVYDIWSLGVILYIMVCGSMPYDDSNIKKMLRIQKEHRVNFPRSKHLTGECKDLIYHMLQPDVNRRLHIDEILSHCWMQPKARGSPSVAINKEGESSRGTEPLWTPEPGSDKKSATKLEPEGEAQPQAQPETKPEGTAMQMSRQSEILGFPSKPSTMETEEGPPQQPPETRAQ

Chain of AURKC (human) (Q9UQB9 whole entry, looked up): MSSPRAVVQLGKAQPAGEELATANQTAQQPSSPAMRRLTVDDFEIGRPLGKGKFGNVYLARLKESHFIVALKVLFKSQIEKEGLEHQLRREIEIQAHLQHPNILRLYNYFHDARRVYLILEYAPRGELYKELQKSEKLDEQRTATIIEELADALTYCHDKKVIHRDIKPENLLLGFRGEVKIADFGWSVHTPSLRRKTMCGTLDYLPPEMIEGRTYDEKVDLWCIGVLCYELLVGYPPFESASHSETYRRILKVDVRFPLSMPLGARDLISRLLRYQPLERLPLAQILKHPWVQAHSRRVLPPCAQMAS

Q: `COCCNCCCn1c(C(=O)CF)c(-c2ccc(C)cc2)c2c(N)ncnc21` was tested. Which kinase still bound, per cent of control [1] did it give?
A: 100%

Q: And the kinase still bound, per cent of control [2]?
A: 89%

Q: What about the kinase still bound, per cent of control [3] of the same molecule?
A: 100%

Q: And the kinase still bound, per cent of control [4]?
A: 95%

Q: What about the kinase still bound, per cent of control [5] of the same molecule?
A: 96%

Q: And the kinase still bound, per cent of control [6]?
A: 100%

Q: What about the kinase still bound, per cent of control [7] of the same molecule?
A: 100%

Q: What about the kinase still bound, per cent of control [8] of the same molecule?
A: 94%

Q: What about the kinase still bound, per cent of control [9] of the same molecule?
A: 98%

Q: And the kinase still bound, per cent of control [10]?
A: 100%

Q: And the kinase still bound, per cent of control [11]?
A: 94%

Q: And the kinase still bound, per cent of control [12]?
A: 100%

Q: What about the kinase still bound, per cent of control [13] of the same molecule?
A: 100%

Q: What about the kinase still bound, per cent of control [14] of the same molecule?
A: 100%

Q: And the kinase still bound, per cent of control [15]?
A: 100%

Q: What about the kinase still bound, per cent of control [16] of the same molecule?
A: 99%

Q: And the kinase still bound, per cent of control [17]?
A: 100%

Q: And the kinase still bound, per cent of control [18]?
A: 100%

Q: What about the kinase still bound, per cent of control [19] of the same molecule?
A: 78%

Q: And the kinase still bound, per cent of control [20]?
A: 100%

Q: And the kinase still bound, per cent of control [21]?
A: 100%

Q: What about the kinase still bound, per cent of control [22] of the same molecule?
A: 99%

Q: What about the kinase still bound, per cent of control [23] of the same molecule?
A: 100%

Q: And the kinase still bound, per cent of control [24]?
A: 87%

Q: What about the kinase still bound, per cent of control [25] of the same molecule?
A: 100%

Q: And the kinase still bound, per cent of control [26]?
A: 100%

Q: What about the kinase still bound, per cent of control [27] of the same molecule?
A: 98%

Q: What about the kinase still bound, per cent of control [28] of the same molecule?
A: 91%

Q: What about the kinase still bound, per cent of control [29] of the same molecule?
A: 100%

Q: What about the kinase still bound, per cent of control [30] of the same molecule?
A: 90%

Q: And the kinase still bound, per cent of control [31]?
A: 100%

Q: What about the kinase still bound, per cent of control [32] of the same molecule?
A: 100%

Q: What about the kinase still bound, per cent of control [33] of the same molecule?
A: 100%

Q: And the kinase still bound, per cent of control [34]?
A: 74%

Q: What about the kinase still bound, per cent of control [35] of the same molecule?
A: 95%

Q: And the kinase still bound, per cent of control [36]?
A: 96%

Q: What about the kinase still bound, per cent of control [37] of the same molecule?
A: 100%

Q: And the kinase still bound, per cent of control [38]?
A: 91%

Q: What about the kinase still bound, per cent of control [39] of the same molecule?
A: 79%

Q: And the kinase still bound, per cent of control [40]?
A: 95%

Q: What about the kinase still bound, per cent of control [41] of the same molecule?
A: 75%

Q: And the kinase still bound, per cent of control [42]?
A: 97%

Q: And the kinase still bound, per cent of control [43]?
A: 100%
